Values quoted from earlier work, collected in US8618066B1 (priority 2003, dated 2013).
“Also recorded” adds a separate entry of the source. Where two headings read alike, the source gives them in different places. No end group written: not given here.

Tested on: Gram+ & Gram− bacteria, fungi, virus, mammalian/cancer cells
Conditions: cited from earlier work
[1] = classes of organisms/cells the peptide is active against

Row | Substance | Activity | Activity [1]
1 | Nigrocin 1: peptide, source Rana nigromaculata (GLLDSIKGMAISAGKGALQNLLKVASCKLDKTC; Nigrocin 1; listed as Rana nigromaculata) | Gram+ & Gram−, Fungi | –
2 | Melanotropin alpha (Alpha-MSH): peptide, source Bovine (SYSMEHFRWGKPV; Melanotropin alpha (Alpha-MSH); listed as Bos taurus) | Gram+, Fungi | –
3 | Gomesin: peptide, source Synthetic (QCRRLCYKQRCVTYCRGR; Synthetic Gomesin) | – | Gram+ & Gram−, Fungi,; also recorded: Mammalian cells
4 | GNCP-2: peptide, source Guinea pig (RCICTTRTCRFPYRRLGTCLFQNRVYTFCC; GNCP-2; listed as Cavia cutleri) | Gram+ & Gram−, Virus, Fungi | –
5 | HNP-1 Defensin: peptide, source Human | Gram+ & Gram−, Virus, Fungi | –
6 | SEQ ID No. 33: synthetic antifungal peptide, Table 1 (VFKLRF) | Fungi | –
7 | Protegrin 5: peptide, source Pig (RGGRLCYCRPRFCVCVGR; Protegrin 5; listed as Sus scrofa) | Gram+ & Gram−, Virus, Fungi | –
8 | Protegrin 2: peptide, source Pig (RGGRLCYCRRRFCICV; Protegrin 2; listed as Sus scrofa) | Gram+ & Gram−, Virus, Fungi | –
9 | SEQ ID No. 38: synthetic antifungal peptide, Table 1 (YFKLRF) | Fungi | –
10 | MBP-1: peptide, source Maize (RSGRGECRRQCLRRHEGQPWETQECMRRCRRRG; Zea mays; MBP-1) | Gram+ & Gram−, Fungi | –
11 | SEQ ID No. 178: synthetic antifungal peptide, Table 1 (WHWLQLKPGQPMY; listed as Saccharomyces cerevisiae) | Fungi | –
12 | SEQ ID No. 26: synthetic antifungal peptide, Table 1 (LRF) | Fungi | –
13 | HNP-4 Defensin: peptide, source Human (VCSCRLVFCRRTELRVGNCLIGGVSFTYCCTRV; HNP-4 Defensin; listed as Homo sapiens) | Gram+ & Gram−, Fungi | –
14 | SEQ ID No. 36: synthetic antifungal peptide, Table 1 (KRKLRF) | Fungi | –
15 | HNP-5 Defensin: peptide, source Human (QARATCYCRTGRCATRESLSGVCEISGRLYRLCCR; HNP-5 Defensin; listed as Homo sapiens) | Gram+ & Gram−, Fungi | –
16 | Peptide PGQ: peptide, source African clawed frog (GVLSNVIGYLKKLGTGALNAVLKQ; Peptide PGQ; listed as Xenopus laevis) | Gram+ & Gram−, Fungi | –
17 | Dhvar5: peptide, source Synthesis (LLLFLLKKRKKRKY; Synthesis dhvar5) | – | Gram+ & Gram−, Fungi
18 | Ranatuerin-2CB: peptide, source Green frog (GLFLDTLKGLAGKLLQGLKCIKAGCKP; Rana clamitans; Ranatuerin-2CB) | Gram+ & Gram−, Fungi | –
19 | SEQ ID No. 175: synthetic antifungal peptide, Table 1 (WTFRYC) | Fungi | –

Row | Substance | Activity | Activity [1]
20 | Penaeidin-1: peptide, source Penoeid shrimp (YRGGYTGPIPRPPPIGRPPLRLVVCACYRLSVSDARNCCIKFGSCCHLVK; Penaeidin-1; listed as Penaeus vannamei) | Gram+ & Gram−, Fungi | –
21 | SEQ ID No. 185: synthetic antifungal peptide, Table 1 (MSPSTKNIPAPVAGARAGPIHYCVIM; listed as Magnaporthe grisea) | Fungi | –
22 | SEQ ID No. 176: synthetic antifungal peptide, Table 1 (CYRFTW) | Fungi | –
23 | SEQ ID No. 29: synthetic antifungal peptide, Table 1 (FLRF) | Fungi | –
24 | Tricholongin: peptide, source Trichoderma longibrachiatum (AGFAAQAAASLAPVAAQQL; Tricholongin; listed as Trichoderma longibrachiatum) | – | Gram+ & Gram−, Fungi
25 | AC-AMP2: peptide, source Amaranthus caudatus (VGECVRGRCPSGMCCSQFGYCGKGPKYCGR; ends and bridges not checked; cysteine pairing not given here; listed as Amaranthus caudatus) | Gram+, Fungi | –
26 | Ib-AMP4: peptide, source Impatiens balsamina (GRRCCGWGPGRRYCRRWC; Ib-antimicrobial peptidic agent4; listed as Impatiens balsamina) | Gram+ Fungi | –
27 | PN-AMP: peptide, source Japenese morning glory | Gram+, Fungi | –
28 | Indolicidin: peptide, source Bos Taurus (ILPWKWPWWPWRR; listed as Bos taurus) | Gram+ & Gram−, Virus, Fungi | –
29 | Ranalexin: peptide, source Bull frog (FLGGLIKIVPAMICAVTKKC; Ranalexin; listed as Rana catesbeiana) | Gram+ & Gram−, Fungi | –
30 | SEQ ID No. 187: synthetic antifungal peptide, Table 1 (MPSNTQTSNSSMGVNGYSYCVVM; listed as Cryphonectria parasitica) | Fungi | –
31 | AMP2 (MJ-AMP2): peptide, source Garden four-o'clock (CIGNGGRCNENVGPPYCCSGFCLRQPNQGYGVCRNR; antimicrobial peptidic agent2 (MJ-antimicrobial peptidic agent2); listed as Mirabilis jalapa) | Gram+, Fungi | –
32 | Lactoferrin (Lf) peptide 2: antimicrobial peptide, Table 1 (FKCRRWQWRM; lactoferrin (Lf) peptide 2) | Fungi | –
33 | Histatin 8: antimicrobial peptide, Table 1 (KFHEKHHSHRGY; Histatin 8) | Gram+ & Gram−, Fungi | –
34 | Protegrin 4: peptide, source Pig (RGGRLCYCRGWICFCVGR; Protegrin 4; listed as Sus scrofa) | Gram+ & Gram−, Virus, Fungi | –
35 | Buforin I: peptide, source Asian toad (AGRGKQGGKVRAKAKTRSSRAGLQFPVGRVHRLLRKGNY; Bufo bufo gargarizans; Buforin 1) | Gram+ & Gram−, Fungi | –
36 | SEQ ID No. 190: synthetic antifungal peptide, Table 1 (WHWLQLKPGQPMY; listed as Saccharomyces cerevisiae) | Fungi | –
37 | SEQ ID No. 191: synthetic antifungal peptide, Table 1 (WCLFHGEGCW; listed as Cryphonectria parasitica) | Fungi | –
38 | Gaegurin-1: peptide, source Wrinkled frog (SLFSLIKAGAKFLGKNLLKQGACYAACKASKQC; Gaegurin-1; listed as Rana rugosa) | Gram+ & Gram−, Fungi | –

Row | Substance | Activity | Activity [1]
39 | SEQ ID No. 179: synthetic antifungal peptide, Table 1 (WHWLSFSKGQPMY; listed as Saccharomyces kluyveri) | Fungi | –
40 | SEQ ID No. 31: synthetic antifungal peptide, Table 1 (FHLRF) | Fungi | –
41 | SEQ ID No. 27: synthetic antifungal peptide, Table 1 (WRF) | Fungi | –
42 | SEQ ID No. 37: synthetic antifungal peptide, Table 1 (LFKLRF) | Fungi | –
43 | Neutrophil defensin 3 (HANP-3): peptide, source Golden hamster (VTCFCRRRGCASRERLIGYCRFGNTIYGLCCRR; Neutrophil defensin 3 (HANP-3); listed as Mesocricetus auratus) | Gram+, Fungi | –
44 | Penaeidin-4a: peptide, source Penoeid shrimp (HSSGYTRPLPKPSRPIFIRPIGCDVCYGIPSSTARLCCFRYGDCCHR; Penaeidin-4a; listed as Penaeus vannamei) | Gram+ & Gram−, Fungi | –
45 | ADENOREGULIN: peptide, source Two coloured leaf frong (GLWSKIKEVGKEAAKAAAKAAGKAALGAVSEAV; Phyllomedusa bicolor; Adenoregulin) | – | Gram+ & Gram−, Fungi
46 | Skin peptide tyrosine-tyrosine: peptide, source Two-colored leaf frog | Gram+ & Gram−, Fungi | –
47 | FRLKFHF [SEQ ID No. 197] | Gram+ & Gram−, Fungi | –
48 | P-18: antimicrobial peptide, Table 1 (KWKLFKKIPKFLHLAKKF; listed as Penaeus vannamei) | Gram+ & Gram−, Fungi, Cancer | –
49 | RatNP-3: peptide, source Rat (CSCRTSSCRFGERLSGACRLNGRIYRLCC; RatNP-3; listed as Rattus norvegicus) | Gram+ & Gram−, Virus, Fungi | –
50 | HNP-6 Defensin: peptide, source Human (STRAFTCHCRRSCYSTEYSYGTCTVMGINHRFCCL; HNP-6 Defensin; listed as Homo sapiens) | Gram+ & Gram−, Fungi | –
51 | SEQ ID No. 42: synthetic antifungal peptide, Table 1 (RFKLRF) | Fungi | –
52 | MUC7 20- Mer: peptide, source Human (LAHQKPFIRKSYKCLHKRCR; MUC7 20-Mer; listed as Homo sapiens) | Gram+ & Gram−, Fungi | –
53 | Termicin: peptide, source Pseudacanthotermes spiniger (ACNFQSCWATCQAQHSIYFRRAFCDRSQCKCVFVRG; Pseudacanthotermes spiniger; Termicin) | Gram+, Fungi | –
54 | BMAP-27: peptide, source Bovine (GRFKRFRKKFKKLFKKLSPVIPLLHLG; BMAP-27; listed as Bos taurus) | Gram+ & Gram−, Fungi | –
55 | Anti-fungal protein 1 (pafp-s): source Phytolacca Americana (AGCIKNGGRCNASAGPPYCCSSYCFQIAGQSYGVCKNR; listed as Phytolacca americana) | Fungi | –
56 | SEQ ID No. 34: synthetic antifungal peptide, Table 1 (HFKLRF) | Fungi | –
